melting point [°C]	Structure (SMILES)
103 to 105	COc1cc(Cl)c([N+](=O)[O-])cc1OC
201 to 203	COCc1c(C(=O)OC(C)C)ncc2[nH]c3cccc(Oc4ccccc4)c3c12
199 to 200	CC(C)(C)OC(=O)NC[C@H]1CC[C@H](CNS(=O)(=O)c2cccc3ccccc23)CC1
51 to 52	CCN(C(=O)c1ccc2nonc2c1)C1CCCCC1
106 to 108	C=CCc1cc2c(c(CC=C)c1O)CCC(=O)N2CCO
76	CCC(O)(CC)c1cc(Cl)ccc1O
194 to 195	CCOC(=O)C1C(=O)CC(C)(O)C(C(=O)OCC)C1c1cc(Br)c2oc(C)c(C)c2c1 (stereo not drawn)
203	CN(C1CCC(=O)CC1)S(=O)(=O)c1ccc(Nc2nccc(Nc3ccc(F)cc3)n2)cc1
124 to 127	CC(=O)c1cccc(-c2nc3sccn3c2-c2ccnc(N[C@@H]3CCCN(S(=O)(=O)c4ccc(Cl)cc4)C3)n2)c1
65	CCCC(=O)C(Cc1ccc(-c2ccccc2-c2nnn[nH]2)cc1)C(=O)OCC (stereo not drawn)
111 to 113	CCc1ccc(C(=O)Nc2ccccc2)cc1[N+](=O)[O-]
175 to 176	Cc1nnc(-c2ccc3occ(-c4ccc(S(C)=O)cc4Cl)c3c2)o1 (stereo not drawn)
173 to 174	Nc1nc(-c2ccccn2)nc2ccccc12
94	Cc1ccc(C2CCc3ccccc3O2)cc1 (stereo not drawn)
105 to 107	COC1=C(OC)C(=O)C2=C(CCC(CCOc3ccc(C#N)cc3)CC2)C1=O
80 to 81	COC(=O)C1CCc2cc(C)c(C)cc2C1=O (stereo not drawn)
267 to 269	CN(Cc1ccccc1)C(=O)c1cnc2c3c(c(F)cc2c1)C(=O)C(C#N)C=N3 (stereo not drawn)
64 to 66	COc1ccc(OCCCCCCI)cc1
217 to 218	CCCCNC(=O)NC(Cc1ccccc1)C(=O)Nc1c(F)cc(F)cc1F (stereo not drawn)
98 to 102	CCOC(=O)Cc1csc(NC(=O)C(N)Cc2cccs2)n1 (stereo not drawn)
128 to 129	CCC(C)(C)NCc1nc2sc3c(c2c(-c2ccc(OC)c(OC)c2)c1Cl)CCN(Cc1ccccc1)C3
123 to 124	CCCCCCCCc1ccc(S(=O)(=O)Nc2nncs2)cc1
60	Nc1ccc(N2CCN(CC(O)(Cn3cncn3)c3ccc(Cl)cc3Cl)CC2)cc1 (stereo not drawn)

melting point [°C]	Structure (SMILES)
105 to 108	COC(=O)C[C@]1(C)C[C@@H](COc2ccc(-c3ccc(C#N)cc3)cc2)NC1=O
93 to 96	Cc1onc(-c2ccco2)c1-c1ccccc1
165 to 168	CCOC(=O)C1=C(C(F)(F)F)Nc2n[nH]c(C)c2C1c1ccccc1Cl (stereo not drawn)
36 to 37	CCC(C)Nc1c(N)cc(C)c(C)c1[N+](=O)[O-] (stereo not drawn)
152 to 154	O=C(Nc1cc(CN2CCOCC2)c(O)c(CN2CCOCC2)c1)c1ccccc1
133 to 135	COc1ccc2[nH]c3c(c2c1)C(=O)/C(=C/c1nc[nH]c1C)CC3
135 to 141	COCc1c(C(=O)OC(C)C)ncc2[nH]c3ccc(OCc4ccccc4Cl)cc3c12
75 to 78	COc1ccc(NC(=O)C(F)F)cn1
223 to 225	CC(=O)NC[C@H]1CN(c2ccc(C3CCN(C(=O)c4cc5ccccc5[nH]4)CC3)c(F)c2)C(=O)O1
206 to 207	CN1CCCCc2cc(-c3cnc(N)nc3N)ccc21
265	Cc1cc(=O)c2cc(N)ccc2s1
174	CCOC(=O)Nc1cccc2c1CN(C)CC2c1ccccc1 (stereo not drawn)
64 to 68	CS(=O)(=O)c1ccc(C(CC2CCCC2)C(=O)O)cc1S(C)(=O)=O (stereo not drawn)
179 to 180	O=C(O)c1cccc(-c2cccn3cc(Cc4cccc(C(F)(F)F)c4)nc23)c1
84 to 85	CC=CCn1c(C)c(C)c2cnnc(OCc3ccco3)c21
192 to 195	COC(=O)c1ccc2c(nc(C)n2Cc2ccccc2)c1C(=O)OC
145 to 146	CCOC(=O)OCCn1nc(-c2cc(C(C)(C)C)c(O)c(C(C)(C)C)c2)c2ccc(C)nc21
183 to 184	COc1ccc(NC(=O)Nc2c(Cl)cncc2Cl)cc1OC1CCCC1
186 to 187	COc1ccc(CC2=C(C)N=NC2=O)cc1OC1CCCC1
253 to 255	Cc1[nH]c(C=O)c(C)c1-c1nc2ccc(C(=O)c3ccccc3)cc2[nH]1
184 to 185	COc1cc(Cl)c([N+](=O)[O-])cc1C(=O)O
117 to 120	CCn1nnc(C(C=CC=O)=C(c2ccc(F)cc2)c2ccc(F)cc2)n1
> 300	O=C1NC(=O)C(c2c[nH]c3ccccc23)=C1C(=O)c1cn2c3c(cccc13)CCC2

melting point [°C]	Structure (SMILES)
34 to 38	CCOC(=O)c1cnoc1-c1ccc(F)cc1
57 to 58	CCOC(=O)CCCCc1ccc(OCc2nc(-c3ccccc3)oc2C)cc1
118	CCOC(=O)C(C)(C)Oc1ccc(-c2ccc(CCNC(=O)c3ccc(OC)c(OC)c3)cc2)cc1
60 to 62	CCOC(=O)c1ccc(/C=C(\C)c2ccc(OC)c(C3(C)CCCCC3)c2)cc1
115	COC(=O)C(Cc1ccc(Cl)cc1Cl)c1c(Cl)cccc1Cl (stereo not drawn)
93 to 94.5	COc1cnc(CO)cc1OC1CCCC1
164 to 165	Ic1ccc(-c2cc[nH]c2)cc1
108 to 110	CC1(COCC(COCC2(C)COC2)(COCC2(C)COC2)COCC2(C)COC2)COC1
138 to 139	CCc1cc2c3ccccc3c(C=O)cc2c2ccccc12
> 320	O=C(CCCOc1ccc2nc3[nH]c(=O)[nH]c3cc2c1)NC1CCCCC1
308 to 310	O=C1CNCC2=C1N=C1N=C(N3CCOCC3)NN1C2
78 to 82	COC(=O)CCC(=O)Nc1cccc(Oc2nc3ccccc3s2)c1
165 to 167	O=S(=O)(Nc1cccc(OCCc2ccc3ccccc3c2)c1)c1cccc2ccccc12
243 to 245	CCCc1nc(C)c(C=O)n1Cc1ccc(-c2ccccc2C(=O)O)cc1
155 to 158	COc1ccc2c(c1)CN(C(=O)NO)N=C2Cc1c(Cl)cncc1Cl
300 to 302	Cc1cc(-c2cc(=O)c3cccnc3o2)ccc1O
71 to 72	Clc1ccc2c(c1)CCC(c1ccccc1)O2 (stereo not drawn)
91 to 92.5	CN(C)CCC(=O)N1Cc2cccc3c2N(CC3)c2ccccc21
125 to 128	O=C(N[C@@H](CCO)C(=O)O)OCc1ccccc1
181 to 182	CCOC(=O)c1cn(CC)c2nc(OC)c(F)cc2c1=O
149 to 151	CC(C)CCOc1c(-c2ccc(S(N)(=O)=O)cc2)cnn(-c2ccc(F)c(F)c2)c1=O
70 to 76	Cn1cnnc1SCCCCCN1CCN(c2cccc(C(F)(F)F)c2)CC1
108	O=C1CCN(CCCN2c3cccc4cccc(c34)S2(=O)=O)CC1

melting point [°C]	Structure (SMILES)
238 to 240	CC(C)(C)CNc1ccnc2sc(C(N)=O)c(N)c12
198 to 200	CCn1ncc2c1ncc1c(SC)nc3ncnn3c12
147 to 149	OC(CNCCNc1ccc(Cl)nn1)COc1ccccc1 (stereo not drawn)
184 to 187	N#CCOc1ccc2cc(-c3cnc(Cc4ccccc4)o3)ccc2c1
158 to 160	COc1cccc(C(CN2CCN(c3cccc(C(F)(F)F)c3)CC2)C2(O)CCCC2)c1 (stereo not drawn)
175 to 177	CCOC(=O)Cn1cc(Cl)cnc1=O
106 to 108	CC(C)(C)Nc1c([N+](=O)[O-])cnc2ccccc12
202	N#Cc1ncn2c(C(F)(F)F)cc(-c3ccccc3)nc12
203 to 205	CS(=O)(=O)c1ccc(-n2cccc2-c2ccc(Cl)cc2)cc1
83.5 to 85.5	Cn1nnnc1S(=O)(=O)CCCCBr
155 to 158	COC(=O)c1ccccc1Nc1cc(C(C)(C)C)c(O)c(C(C)(C)C)c1
81 to 82	CN1C=Cc2ccccc2CC1=O
134 to 136	CCOC(=O)c1ccc(NC(=O)c2ccc3c(c2)OCCO3)cc1
148 to 149	CCC(=O)NC1Cc2ccccc2C(Cc2ccccc2)C1 (stereo not drawn)
132 to 134	Cc1cccc2[nH]c(C(=O)NCCc3ccc(CCCC(=O)O)cc3)cc12
188 to 189	Nc1c(C(=O)c2cccnc2)[nH]c2cc(Cl)ccc12
203	CCCC1=C(C(=O)OCC)C(c2ccccc2OCC)c2c[nH]nc2N1 (stereo not drawn)
109 to 110	Cc1ccc(S(=O)(=O)N[C@@H](C)C(=O)N[C@@H](Cc2ccccc2)C(=O)OCc2ccccc2)cc1
160 to 162	N#Cc1ccc(NC(=O)c2ccnc(SCc3ccc(F)cc3)c2)cc1
202 to 203	CSc1cncc(-c2nc(=O)c3ccccc3s2)n1
96 to 97	OCC[Si](c1ccccc1)(c1ccccc1)c1ccccc1
262 to 264	Fc1ccccc1N1CCN(Cc2nc3ccccc3[nH]2)CC1
199 to 201	OC1C(CF)OC(n2cnc3c(NN4CCCCC4)nc(Cl)nc32)C1O (stereo not drawn)

Structure (SMILES)	melting point [°C]
CCc1cc2c3c(ccc2[nH]1)OCC(CN1CC=C(c2c[nH]c4ccccc24)CC1)O3 (stereo not drawn)	175 to 177
O=C1CCC2(F)C3Cc4ccc(O)c5c4C2(CCN3CC2CC2)C1O5 (stereo not drawn)	188 to 190
N#Cc1ccc(N2CCC(=O)C2)c2ccccc12	153 to 154
CN1CCN(C(=O)COc2cccc(-n3nc(-c4ccc(F)cc4)c4cccnc43)c2)CC1	132 to 135
CN1C(=O)CN(C(=O)CCl)C(c2ccccc2)c2cc(Cl)ccc21 (stereo not drawn)	197 to 200
O=c1[nH]c2ccc(F)cc2c(=O)n1CCCN1CC=C(c2ccc(Cl)cc2)CC1	192 to 193
CN(C)C1(c2ccccc2)CCC2(OCCc3c2[nH]c2ccccc32)C(CC#N)C1 (stereo not drawn)	260 to 267
Cc1cc(Cl)cc(C(=O)NC(C)C)c1NC(=O)c1cc(Br)nn1-c1ncccc1Cl	159 to 161
O=C1NCN(c2ccc(F)c(Cl)c2)C12CCN(C1CCC(c3ccc(F)cc3)(c3ccc(F)cc3)CC1)CC2	201 to 203
CCC1CC2(C)C(CCC3C2CCC2(C)C(OC)CCC32)CC1=O (stereo not drawn)	105 to 107
CC(=O)OC(c1cn2c(nc3ccccc32)s1)C1(Br)C(=O)N2C(C(=O)OCc3ccc([N+](=O)[O-])cc3)=CS[C@@H]21 (stereo partly drawn)	78

— a melting point compilation (Tetko et al.; mined from patent text by program, amines drawn as free bases though some values may be those of a salt)
